Molecules are shown by their SMILES.

For the experiment, the system named is P. aeruginosa NCTC11454. Kind of experiment: Antimicrobial susceptibility testing: 50% growth inhibitory concentration (IC50) determination. It is filed as cell-based. Particulars: Pseudomonas aeruginosa, Iso-Sensitest broth, OD 600 nm every 20 minutes over 16h, growth inhibition during logarithmic growth. The protocol:
The in vitro antimicrobial activity of the compounds was alternatively determined according to the following procedure: The assay used a 10-points Iso-Sensitest broth medium to measure quantitatively the in vitro activity of the compounds against P. aeruginosa NCTC11454. Stock compounds in DMSO were serially twofold diluted (e.g. range from 50 to 0.097 μM final concentration) in 384 wells microtiter plates and inoculated with 49 μl the bacterial suspension in Iso-Sensitest medium to have a final cell concentration of ˜5×10^(5) CFU/ml in a final volume/well of 50 ul/well. Microtiter plates were incubated at 35±2° C. Bacterial cell growth was determined with the measurement of optical density at λ=600 nm each 20 minutes over a time course of 16h. Growth inhibition was calculated during the logarithmic growth of the bacterial cells with determination of the concentration inhibiting 50% (IC50) and 90% (IC90) of the growth. Table 2 provides the 50% growth inhibitory concentrations (IC50) in micromoles per liter of the compounds of present invention obtained against P. aeruginosa NCTC11454.
A word on the IC50: it is the midpoint of a concentration-inhibition curve. A low value points to greater potency in that assay. In turn, `CN1C(=O)[C@H](CCCCN)NC(=O)[C@H](CCCN)NCc2ccccc2Sc2ccc(Cl)cc2CNC(=O)[C@@H]1Cc1c[nH]c2ccccc12` [Example 1, (12S,15S,18S)-15-(4-Amino-butyl)-18-(3-amino-propyl)-6-chloro-12-(1H-indol-3-ylmethyl)-13-methyl-2-thia-10,13,16,19-tetraaza-tricyclo[19.4.0.0*3,8*]pentacosa-1(21),3,5,7,22,24-hexaene-11,14,17-trione] gave an IC50 of 32 µM. In other words, the double-digit micromolar range.

In turn, `CN1C(=O)[C@H](CCCCN)NC(=O)[C@H](CCCN)NCc2ccccc2Sc2cc(C(F)(F)F)ccc2CNC(=O)[C@@H]1Cc1c[nH]c2ccccc12` [Example 4, (12S,15S,18S)-15-(4-Amino-butyl)-18-(3-amino-propyl)-12-(1H-indol-3-ylmethyl)-13-methyl-5-trifluoromethyl-2-thia-10,13,16,19-tetraaza-tricyclo[19.4.0.0*3,8*]pentacosa-1(21),3,5,7,22,24-hexaene-11,14,17-trione] gave an IC50 of 12.6 µM.

The molecule `CN1C(=O)[C@H](CCCCN)NC(=O)[C@H](CCCN)NCc2ccccc2Sc2ccccc2CNC(=O)[C@@H]1Cc1c[nH]c2cc(Cl)ccc12` [Example 5, (12S,15S,18S)-15-(4-Amino-butyl)-18-(3-amino-propyl)-12-(6-chloro-1H-indol-3-ylmethyl)-13-methyl-2-thia-10,13,16,19-tetraaza-tricyclo[19.4.0.0*3,8*]pentacosa-1(21),3,5,7,22,24-hexaene-11,14,17-trione] yielded an IC50 of 24.4 µM.

For the molecule `CN1C(=O)[C@H](CCCCN)NC(=O)[C@H](CCCN)NCc2ccccc2Sc2ccc(Cl)cc2CNC(=O)[C@@H]1Cc1cn(C)c2ccccc12` [Example 6, (12S,15S,18S)-15-(4-Amino-butyl)-18-(3-amino-propyl)-6-chloro-13-methyl-12-(1-methyl-1H-indol-3-ylmethyl)-2-thia-10,13,16,19-tetraaza-tricyclo[19.4.0.0*3,8*]pentacosa-1(21),3,5,7,22,24-hexaene-11,14,17-trione], 22.7 µM corresponded to half-maximal inhibition (IC50).

Regarding `CN1C(=O)[C@H](CCCCN)NC(=O)[C@H](CCCN)NCc2ccccc2Sc2ccc(Cl)cc2CNC(=O)[C@@H]1Cc1c[nH]c2cc(Cl)ccc12` [Example 7, (12S,15S,18S)-15-(4-Amino-butyl)-18-(3-amino-propyl)-6-chloro-12-(6-chloro-1H-indol-3-ylmethyl)-13-methyl-2-thia-10,13,16,19-tetraaza-tricyclo[19.4.0.0*3,8*]pentacosa-1(21),3,5,7,22,24-hexaene-11,14,17-trione], the IC50 amounted to 7.62 µM.

In turn, `CN1C(=O)[C@H](CCCCN)NC(=O)[C@H](CCCN)NCc2ccccc2Sc2ccc(Cl)cc2CNC(=O)[C@@H]1Cc1cn(C)c2cc(Cl)ccc12` [Example 8, (12S,15S,18S)-15-(4-Amino-butyl)-18-(3-amino-propyl)-6-chloro-12-(6-chloro-1-methyl-1H-indol-3-ylmethyl)-13-methyl-2-thia-10,13,16,19-tetraaza-tricyclo[19.4.0.0*3,8*]pentacosa-1(21),3,5,7,22,24-hexaene-11,14,17-trione] had an IC50 of 13.2 µM.

For the molecule `CN1C(=O)[C@H](CCCCN)NC(=O)[C@H](CCCN)NCc2ccccc2Sc2ccc(Cl)c(Cl)c2CNC(=O)[C@@H]1Cc1c[nH]c2ccccc12` [Example 9, (12S,15S,18S)-15-(4-Amino-butyl)-18-(3-amino-propyl)-6,7-dichloro-12-(1H-indol-3-ylmethyl)-13-methyl-2-thia-10,13,16,19-tetraaza-tricyclo[19.4.0.0*3,8*]pentacosa-1(25),3,5,7,21,23-hexaene-11,14,17-trione], the IC50 was 24.5 µM.

`CN1C(=O)[C@H](CCCCN)NC(=O)[C@H](CCCN)NCc2ccccc2Sc2c(Cl)ccc(C(F)(F)F)c2CNC(=O)[C@@H]1Cc1c[nH]c2ccccc12` [Example 10, (12S,15S,18S)-15-(4-Amino-butyl)-18-(3-amino-propyl)-4-chloro-12-(1H-indol-3-ylmethyl)-13-methyl-7-trifluoromethyl-2-thia-10,13,16,19-tetraaza-tricyclo[19.4.0.0*3,8*]pentacosa-1(25),3,5,7,21,23-hexaene-11,14,17-trione] came in with an IC50 of 10.7 µM.

`Cc1cc(Cl)cc2c1Sc1ccccc1CN[C@@H](CCCN)C(=O)N[C@@H](CCCCN)C(=O)N(C)[C@@H](Cc1c[nH]c3ccccc13)C(=O)NC2` [Example 14, (12S,15S,18S)-15-(4-Amino-butyl)-18-(3-amino-propyl)-6-chloro-12-(1H-indol-3-ylmethyl)-4,13-dimethyl-2-thia-10,13,16,19-tetraaza-tricyclo[19.4.0.0*3,8*]pentacosa-1(25),3,5,7,21,23-hexaene-11,14,17-trione] showed an IC50 of 24.3 µM.

As to `CN1C(=O)[C@H](CCCCN)NC(=O)[C@H](CCCN)NCc2cccnc2Sc2c(cc(-c3ccccc3)cc2C(F)(F)F)CNC(=O)[C@@H]1Cc1c[nH]c2ccccc12` [Example 22, (11S,14S,17S)-14-(4-Amino-butyl)-11-(3-amino-propyl)-17-(1H-indol-3-ylmethyl)-16-methyl-23-phenyl-25-trifluoromethyl-2-thia-4,10,13,16,19-pentaaza-tricyclo[19.4.0.0*3,8*]pentacosa-1(25),3,5,7,21,23-hexaene-12,15,18-trione], the IC50 was 10.1 µM.

`CN1C(=O)[C@H](CCCCN)NC(=O)[C@H](CCCN)NCc2ncccc2Sc2c(Cl)cc(C(F)(F)F)cc2CNC(=O)[C@@H]1Cc1c[nH]c2ccccc12` [Example 24, (11S,14S,17S)-14-(4-Amino-butyl)-11-(3-amino-propyl)-25-chloro-17-(1H-indol-3-ylmethyl)-16-methyl-23-trifluoromethyl-2-thia-7,10,13,16,19-pentaaza-tricyclo[19.4.0.0*3,8*]pentacosa-1(25),3,5,7,21,23-hexaene-12,15,18-trione] yielded an IC50 of 22.4 µM.

With `NCCCC[C@@H]1NC(=O)[C@@H](CCCN)NCc2cccnc2Sc2c(ccc(-c3ccccc3)c2Cl)CNC(=O)[C@H](Cc2c[nH]c3ccccc23)NC1=O` [Example 25, (11R,14S,17S)-14-(4-Amino-butyl)-11-(3-amino-propyl)-25-chloro-17-(1H-indol-3-ylmethyl)-24-phenyl-2-thia-4,10,13,16,19-pentaaza-tricyclo[9.4.0.0*3,8*]pentacosa-1(25),3,5,7,21,23-hexaene-12,15,18-trione], the IC50 was determined as 25.3 µM. This IC50 and that of the molecule before are within 1.5-fold of each other.

`NCCCC[C@@H]1NC(=O)[C@H](CCCN)NCc2cccnc2Sc2c(ccc(-c3ccccc3)c2Cl)CNC(=O)[C@H](Cc2c[nH]c3ccccc23)NC1=O` [Example 26, (11S,14S,17S)-14-(4-Amino-butyl)-11-(3-amino-propyl)-25-chloro-17-(1H-indol-3-ylmethyl)-24-phenyl-2-thia-4,10,13,16,19-pentaaza-tricyclo[9.4.0.0*3,8*]pentacosa-1(25),3,5,7,21,23-hexaene-12,15,18-trione]: the IC50 was 23.7 µM.

In the case of `CN1C(=O)[C@H](CCCCN)NC(=O)[C@@H](CCCN)NCc2cccnc2Sc2c(ccc(-c3ccccc3)c2Cl)CNC(=O)[C@@H]1Cc1c[nH]c2ccccc12` [Example 27, (11R,14S,17S)-14-(4-Amino-butyl)-11-(3-amino-propyl)-25-chloro-17-(1H-indol-3-ylmethyl)-16-methyl-24-phenyl-2-thia-4,10,13,16,19-pentaaza-tricyclo[19.4.0.0*3,8*]pentacosa-1(25),3,5,7,21,23-hexaene-12,15,18-trione], the IC50 worked out at 11.3 µM.

`CN1C(=O)[C@H](CCCN)NC(=O)[C@H](CCCN)NCc2ccccc2Sc2c(Cl)cc(Cl)cc2CNC(=O)[C@@H]1Cc1c[nH]c2ccccc12` [Example 30, (12S,15S,18S)-15,18-Bis-(3-amino-propyl)-4,6-dichloro-12-(1H-indol-3-ylmethyl)-13-methyl-2-thia-10,13,16,19-tetraaza-tricyclo[19.4.0.0*3,8*]pentacosa-1(25),3,5,7,21,23-hexaene-11,14,17-trione] displayed an IC50 of 11.1 µM.

`CN1C(=O)[C@H](CCCCN)NC(=O)[C@H](CCCN)NCc2cccnc2Sc2c(Cl)ccc(C(F)(F)F)c2CNC(=O)[C@@H]1Cc1c[nH]c2ccc(Cl)cc12` [Example 31, (11S,14S,17S)-14-(4-Amino-butyl)-11-(3-amino-propyl)-25-chloro-17-(5-chloro-1H-indol-3-ylmethyl)-16-methyl-22-trifluoromethyl-2-thia-4,10,13,16,19-pentaaza-tricyclo[19.4.0.0*3,8*]pentacosa-1(25),3,5,7,21,23-hexaene-12,15,18-trione] registered an IC50 of 25.4 µM.

As to `CN1C(=O)[C@H](CCCCN)NC(=O)[C@H](CCCN)NCc2ccccc2Sc2c(Cl)cc(-c3ccccc3)cc2CNC(=O)[C@@H]1Cc1c[nH]c2ccccc12` [Example 32, (12S,15S,18S)-15-(4-Amino-butyl)-18-(3-amino-propyl)-4-chloro-12-(1H-indol-3-ylmethyl)-13-methyl-6-phenyl-2-thia-111,13,16,19-tetraaza-tricyclo[19.4.0.0*3,8*]pentacosa-1(25),3,5,7,21,23-hexaene-11,14,17-trione], the midpoint of inhibition, the IC50, lay at 7.15 µM.

Regarding `CN1C(=O)[C@H](CCCCN)NC(=O)[C@H](CCCN)NCc2ccccc2Sc2c(Cl)cc(-c3ccccc3Cl)cc2CNC(=O)[C@@H]1Cc1c[nH]c2ccccc12` [Example 33, (12S,15S,18S)-15-(4-Amino-butyl)-18-(3-amino-propyl)-4-chloro-6-(2-chloro-phenyl)-12-(1H-indol-3-ylmethyl)-13-methyl-2-thia-10,13,16,19-tetraaza-tricyclo[19.4.0.0*3,8*]pentacosa-1(25),3,5,7,21,23-hexaene-11,14,17-trione], the midpoint of inhibition, the IC50, lay at 9.02 µM. The IC50 values of the last two molecules are within 1.5-fold of each other.

Source of the values: patent publication US11066443B2 (Hoffmann-La Roche Inc., priority 2017, dated 2021).
